Calls of active or inactive are those of the source. The calls are words filed in the database; no cut-off is given here.
Assays:
Mu-type opioid receptor = Mu-type opioid receptor (Homo sapiens, UniProt P35372); assay: Displacement of [3H]DAMGO from human mu opioid receptor expressed in CHO cells; assay type: cell-based
[1] = molecular target: T1, Delta-type opioid receptor (Homo sapiens, UniProt P41143); assay: Agonist activity at human delta opioid receptor expressed in CHO cell membranes by [35S]GTPgammaS binding assay; assay type: functional
[2] = molecular target: T1, Delta-type opioid receptor; assay: Displacement of [3H]DPDPE from human delta opioid receptor expressed in CHO cells; assay type: cell-based
[3] = molecular target: T1, Delta-type opioid receptor; assay: Agonist activity at human delta opioid receptor expressed in CHO cell membranes by [35S]GTPgammaS binding assay relative to control; assay type: functional
Homo sapiens [4] = organism: Homo sapiens; assay: Selectivity ratio for Ki for displacement of [3H]DAMGO from human mu opioid receptor expressed in CHO cells to Ki for displacement of [3H]DPDPE from human DOR expressed in CHO cells; assay type: cell-based
[5] = molecular target: Kappa-type opioid receptor (Homo sapiens, UniProt P41145); assay: Displacement of [3H]U69593 from human kappa opioid receptor expressed in CHO cells; assay type: cell-based
Homo sapiens [6] = organism: Homo sapiens; assay: Selectivity ratio for Ki for displacement of [3H]U69593 from human kappa opioid receptor expressed in CHO cells to Ki for displacement of [3H]DPDPE from human DOR expressed in CHO cells; assay type: cell-based
[7] = molecular target: T1, Delta-type opioid receptor; assay: Inverse agonist activity at human delta opioid receptor expressed in CHO cell membranes by [35S]GTPgammaS binding assay; assay type: functional
Mus musculus [8] = assay: Antidepressant activity in mouse at 10 mg/kg, sc by forced swim tes; assay type: functional, organism-based
Mus musculus [9] = assay: Antidepressant activity in sc dosed mouse assessed as decrease in total immobility count by forced swim test; assay type: functional, organism-based
Mus musculus [10] = assay: Antidepressant activity in sc dosed mouse assessed as increase in total swimming count by forced swim test; assay type: functional, organism-based
Mus musculus [11] = assay: Antidepressant activity in sc dosed mouse assessed as increase in climbing count by forced swim test; assay type: functional, organism-based
Mus musculus [12] = assay: Antidepressant activity in mouse at 3 mg/kg, sc by forced swim test; assay type: functional, organism-based

Chain of Mu-type opioid receptor (P35372 whole entry): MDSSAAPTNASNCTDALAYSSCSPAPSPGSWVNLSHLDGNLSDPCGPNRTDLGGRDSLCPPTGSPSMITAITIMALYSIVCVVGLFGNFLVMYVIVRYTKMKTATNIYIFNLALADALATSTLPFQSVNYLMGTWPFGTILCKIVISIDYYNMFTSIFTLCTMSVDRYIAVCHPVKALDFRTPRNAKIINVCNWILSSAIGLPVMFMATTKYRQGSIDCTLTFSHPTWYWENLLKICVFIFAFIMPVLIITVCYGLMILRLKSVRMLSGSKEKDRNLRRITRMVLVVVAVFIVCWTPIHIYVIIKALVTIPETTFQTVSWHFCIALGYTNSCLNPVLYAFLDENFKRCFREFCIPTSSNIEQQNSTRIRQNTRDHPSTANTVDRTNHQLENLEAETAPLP
T1 sequence (P41143 whole entry): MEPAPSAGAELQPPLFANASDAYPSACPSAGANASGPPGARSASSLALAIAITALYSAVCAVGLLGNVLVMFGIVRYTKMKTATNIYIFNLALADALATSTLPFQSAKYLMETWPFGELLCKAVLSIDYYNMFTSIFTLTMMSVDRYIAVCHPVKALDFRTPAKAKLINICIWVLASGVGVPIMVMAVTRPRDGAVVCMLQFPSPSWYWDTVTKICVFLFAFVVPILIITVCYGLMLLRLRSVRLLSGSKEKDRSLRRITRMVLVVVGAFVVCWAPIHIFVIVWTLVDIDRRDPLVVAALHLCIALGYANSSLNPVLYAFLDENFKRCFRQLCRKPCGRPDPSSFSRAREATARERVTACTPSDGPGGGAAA
Chain of Kappa-type opioid receptor (P41145 whole entry): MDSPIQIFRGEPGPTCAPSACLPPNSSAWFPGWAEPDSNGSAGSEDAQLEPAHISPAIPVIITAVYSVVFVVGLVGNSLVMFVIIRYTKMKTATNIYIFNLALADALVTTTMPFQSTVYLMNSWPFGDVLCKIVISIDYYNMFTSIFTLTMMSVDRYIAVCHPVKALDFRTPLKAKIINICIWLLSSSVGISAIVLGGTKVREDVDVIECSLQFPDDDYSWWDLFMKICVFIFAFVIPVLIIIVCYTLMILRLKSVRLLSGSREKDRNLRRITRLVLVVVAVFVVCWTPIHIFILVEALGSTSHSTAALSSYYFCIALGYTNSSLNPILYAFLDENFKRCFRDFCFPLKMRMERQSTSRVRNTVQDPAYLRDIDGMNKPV

| SMILES | Ki (Mu-type opioid receptor) | EC50 [1] | Ki [2] | Emax [3] | Ratio Ki (Homo sapiens [4]) | Ki [5] | Ratio Ki (Homo sapiens [6]) | EC50 [7] | Activity (Mus musculus [8]) | Activity (Mus musculus [9]) | Activity (Mus musculus [10]) | Activity (Mus musculus [11]) | Activity (Mus musculus [12]) |
| --- | --- | --- | --- | --- | --- | --- | --- | --- | --- | --- | --- | --- | --- |
| O=C(CCc1ccccc1)N1CC[C@]23Cc4nc5ccccc5cc4C[C@@]2(O)[C@H]1Cc1ccc(O)cc13 | 1790 nM | 10.4 nM | 4.17 nM | 123% | 430 |  |  |  |  |  |  |  |  |
| O=C(CCc1ccccc1)N1CC[C@]23c4c5ccc(O)c4O[C@H]2c2[nH]c4ccccc4c2C[C@@]3(O)[C@H]1C5 | 3480 nM | 127 nM | 89 nM | 88.5% | 39.2 | 2150 nM | 24.2 |  |  |  |  |  |  |
| COC1=CC=C2C[C@H]3N(C(=O)C4CC4)CC[C@]45C2C1O[C@H]4c1[nH]c2ccccc2c1C[C@@]35O (stereo partly specified) |  |  |  |  |  |  |  | 322 nM |  |  |  |  |  |
| CN1CC[C@]23Cc4nc5ccccc5cc4C[C@@]2(O)[C@H]1Cc1ccc(O)cc13 |  |  |  |  |  |  |  |  | Active | Dose-dependent effect | Dose-dependent effect | Dose-dependent effect |  |
| O=C(Cc1ccccc1)N1CC[C@]23Cc4nc5ccccc5cc4C[C@@]2(O)[C@H]1Cc1ccc(O)cc13 |  | 14.4 nM | 26 nM | 125% |  |  |  |  |  | Dose-dependent effect | Dose-dependent effect | Dose-dependent effect | Active |
| O=C(Cc1ccccc1)N1CC[C@]23c4c5ccc(O)c4O[C@H]2c2[nH]c4ccccc4c2C[C@@]3(O)[C@H]1C5 | 8670 nM | 132 nM | 41.5 nM | 97.5% | 209 | 5990 nM | 144 |  |  |  |  |  |  |
